Literature values as cited in patent publication US20030165581A1, “Compositions for treating diabetes mellitus, methods of use and manufacturing process of the same” (priority 2002, published 2003).
Like-named read-outs stand apart in the source and are kept apart here.

Experiments:
[1] = system: rats with experimentally induced diabetes; conditions: reduced from 300 mg/dL
[2] = system: hereditary Type II diabetic mice
mice = conditions: oral dose
[3] = system: human subjects with mild Type II diabetes
Type II diabetic rats = conditions: supplementation with corosolic acid; control group showed elevation
[4] = system: Ehrlich ascites tumor cells; conditions: time course of glucose uptake
[5] = system: subjects with mild Type II diabetes; conditions: for average blood glucose level: soft gelatin formulation, 48 mg daily, control 168.3
[6] = system: subjects with mild Type II diabetes; conditions: for drop of average blood glucose level compared to placebo: dry powder base, two-piece hard gelatin capsule; for drop of average blood glucose level: oil based soft gelatin capsule, two weeks
[7] = supplemented with corosolic acid

In the case of C[C@H]1[C@H](C)CC[C@]2(C(=O)O)CC[C@]3(C)C(=CC[C@@H]4[C@@]5(C)C[C@@H](O)[C@H](O)C(C)(C)[C@@H]5CC[C@]43C)[C@H]12 [corosolic acid], the “blood sugar level after corosolic acid” value [1] is listed as 150 mg/dL, the “time of peak reduction after administration” value (normal rabbits; after large doses) is listed as “two to four” and the blood sugar reduction (normal rabbits; large doses) is listed as “more than 57 mg per 100 mL blood”. For the same molecule, the “time blood sugar remained low” value (normal rabbits; repetition of the first dose after two more hours) was “more than 5 hours”, the “increase of plasma glucose levels” value ([2]; diet including corosolic acid for five weeks vs control diet) was “completely suppressed” and the “level of serum insulin” value [2, 7] was “lowered”. For the same molecule, the total plasma cholesterol [2, 7] was “lowered”, the urinary excreted glucose [2, 7] was “lowered” and the blood sugar levels (mice) was “reduces blood sugar levels”. For the same molecule, the adverse effects ([3]; short-term (four weeks) treatment) was “no signs of adverse effects”, the blood glucose levels ([3]; tablet after each meal three times daily, four weeks, vs placebo) was “effective in reducing blood glucose levels” and the glucose levels (Type II diabetic rats) was “decrease in glucose levels”. For the same molecule, the “glucose transport-stimulating activity (glucose uptake by Ehrlich cells)” value [4] was “significant glucose transport-stimulating activity”, the “blood glucose level during washout” value ([5]; 15 days of washout after soft gelatin treatment) was 131.7 mg/dL and the “blood glucose level during washout” value ([5]; 30 days of washout after soft gelatin treatment) was 153.2 mg/dL. The “blood glucose level during washout” value ([5]; 45 days of washout after soft gelatin treatment) was 168.2 mg/dL, the “decline in blood glucose levels after a meal” value ([5]; compared to untreated (diabetic) control conditions) was “sharper decline” and the weight loss ([5]; dry-powder based formulation) was “no weight loss”. The average weight loss ([5]; oil-based formulation in a soft gelatin capsule) was 3.2 pounds, the adverse effects ([5]; oral dose, cross-over study) was “no signs of adverse effects” and the “average blood glucose level” value ([5]; 15th day of treatment) was 127.2 mg/deciliter. For the same molecule, the “average blood glucose level” value ([5]; 30th day of treatment) was 115.1 mg/deciliter, the “memory effect after termination of the treatment” value ([5]; washout period blood glucose levels) was “up to four” and the “drop of average blood glucose level compared to placebo” value (“drop … compared to placebo” below) ([6]; 16 mg per day) was 3.18%. For the same molecule, the “drop … compared to placebo” value ([6]; 32 mg per day) was 6.5%, the “drop … compared to placebo” value ([6]; 48 mg per day) was 20.2% and the “drop of average blood glucose level” value ([6]; 16 mg per day) was 4.9%. For the same molecule, the “drop of average blood glucose level” value ([6]; 32 mg per day) was 10.7% and the “drop of average blood glucose level” value ([6]; 48 mg per day) was 31.9%.
